Publication PMC10253860, “Kinetic Profile of Urine Metabolites after Acute Intake of a Phenolic Compounds-Rich Juice of Juçara (Euterpe edulis Mart.) and Antioxidant Capacity in Serum and Erythrocytes: A Human Study” (International Journal of Molecular Sciences, 2023)

What was measured:
[1] = Urinary excretion of phenolic metabolites after single 400 mL juçara juice intake (HPLC-DAD, LC-ESI-MS/MS); assay type: in vivo, human; conditions: for AUC / Cmax: urine, mean ± SEM, n = 9–10; for AUC: 0–6 h after 400 mL juçara juice; for Cmax: 10 healthy subjects, after 400 mL juçara juice
From the text: Study volunteers were selected according to the following inclusion criteria: no clinical conditions such as cardiovascular, endocrine, gastrointestinal, renal, or hepatic diseases; no visible or known infections or inflammatory processes within three months of the study; no use of medicines or dietary supplements, no smoking, no regular alcohol drinking. The other criteria were BMI < 30 kg/m^2 and no gastric intolerance or complications related to the juçara juice intake. […] The subjects were advised to avoid vegetable and fruit sources of anthocyanins or their derivatives, such as açai, blackberries, blueberries, cherries, red and purple grapes, strawberries, and green and black tea, two days before the study. […] The subjects were also instructed not to practice intense physical activity and not to deprive themselves of sleeping before the outset of the study protocol. […] Subsequently, the participants drank 400 mL of the juçara juice within 5 min. Blood (30, 60, 120, and 360 min) and urine (0–3, 3–6 h) were collected again. The volunteers continued fasting during the 6 h of the sample collection time. The study protocol was based on evidence that anthocyanins appear to be rapidly absorbed and then eliminated within 4 h. […] Blood oxidative stress biomarkers were assessed, and urine metabolites of phenolic compounds were measured.
Phenolic compounds were extracted in urine using Waters OASIS HLB μElution plates (Milford, MA, USA), which were preconditioned with 250 μL methanol and 250 μL 0.2% acetic acid. After urine collection, the samples were immediately acidified with trifluoracetic acid. Aliquots of the samples were applied to the μ Columns of the plates and the phenolic compounds were eluted with methanol acidified with 0.2% acetic acid. The eluate was dried using CentriVap Benchtop Vacuum Concentrators (Labconco, Kansas City, MO, USA), reconstituted with methanol acidified with 5% acetic acid, and filtered with a […] PTEF filter (Millipore, Bedford, MA, USA).
The mobile phase consisted of two solvents: (A) 0.5% formic acid in water and (B) 0.5% formic acid in acetonitrile. The gradient used was 10% (B) at the beginning, 10% at 5 min, 20% at 15 min, 25% at 25 min, 35% at 33 min, 50% at 38 min, 90% at 43–44 min and 10% at 45 min. […] Quantification was based on the calibration curves of the PCA, VA, iVA, HA, HBA, and HPA standards. The concentrations were expressed as μmol/mmol creatinine for urine samples, and the elimination values were expressed in μmol. Urinary creatinine was evaluated using a Labtest kit (Labtest Diagnóstica S.A., Lagoa Santa, Minas Gerais, Brazil). The area under the curve (AUC) was calculated using the trapezoidal rule (data expressed as μmol/h), and the maximum concentration (Cmax) was calculated using the Origin 6.0 software (OriginLab Corporation, Northampton, MA, USA) and expressed as the mean and standard error of the mean (SEM). The samples collected from 0 to 3 h (after the juçara juice intake) were indicated as 3 h urine and the samples collected from 3 to 6 h were designated as 6 h urine to indicate the period of excretion. The standards’ purity varied from 95 to 98%.
Phenolic compounds’ metabolites were identified using a Prominence Liquid Chromatograph (Shimadzu, Japan) coupled to an ion trap Esquires-LC mass spectrometer (Bruker Daltonics, Billerica, MA, USA) with an electrospray ionization (ESI) interface. The chromatography condition was the same as that used for metabolite quantification by HPLC-DAD. After passing through the DAD detector, the flow rate was changed to 0.2 mL/min to inject the samples into the mass spectrometer. ESI was left in the positive mode for anthocyanins and in the negative mode for the other compounds. […] Scanning m/z was 100–1500.

[2] = design: method as in PMID 12488939, PMID 34430750; conditions: toluene-free healthy volunteers; cited from earlier work

Structure (SMILES)	average urine concentration at baseline ([1]; baseline samples, before the juice intake)	AUC [1] [µmol/h]	Cmax [1] [µmol/mmol Creatinine]	normal urine value [2]
O=C(O)[C@H]1O[C@@H](Oc2c(-c3ccc(O)cc3)oc3cc(O)cc(O)c3c2=O)[C@H](O)[C@@H](O)[C@@H]1O [Kaempferol glucuronide]	–	138.05 ± 20.58	13.62 ± 1.89	–
O=C(O)Cc1ccc(O)cc1 [Hydroxyphenylacetic acid]	–	3527.78 ± 657.52	334.09 ± 46.79	–
O=C(O)c1ccc(O)c(O)c1.O=C(O)c1ccc(O)c(O)c1 [Protocatechuic acid, 3,4-Dihydroxybenzoic acid (protocatechuic acid)]	–	282.89 ± 49.31	28.26 ± 3.62	–
COc1cc(C(=O)O)ccc1O[C@@H]1O[C@H](C(=O)O)[C@@H](O)[C@H](O)[C@H]1O [Vanillic acid glucuronide]	–	164.38 ± 14.98	16.74 ± 1.33	–
O=C(O)CNC(=O)c1ccccc1 [Hippuric acid]	around 243.06 µmol/mmol creatinine	6483.34 ± 1159.82	605.80 ± 75.74	126.36–245.13 µmol/mmol creatinine
COc1cc(C(=O)O)ccc1O [Vanillic acid]	–	191.42 ± 25.98	20.13 ± 2.27	–
